# BindingDB's records for doi:10.1021/jm000455z (Kissei Pharmaceutical, 2001)
# Assay: Agonistic activity towards beta-3 adrenoceptor. Mean concentration required to produce 50% relaxation of detrusor before the addition in the ferret detrusor
row,Structure (SMILES),EC50 [nM]
1,C[C@H](NCCc1ccc(NC(C)(C)C(=O)O)cc1Cl)[C@H](O)c1ccc(O)cc1,5.62
2,C[C@H](NCCc1ccc(N(C)CC(=O)O)cc1)[C@H](O)c1ccc(O)cc1,52.5
3,C[C@H](NCCc1cc(Cl)c(N(C)CC(=O)O)c(Cl)c1)[C@H](O)c1ccc(O)cc1,158
4,C[C@H](NCCc1ccc(N(C)CC(=O)O)c(Cl)c1)[C@H](O)c1ccc(O)cc1,11
5,C[C@H](NCCc1cc(Br)c(NCC(=O)O)c(Br)c1)[C@H](O)c1ccc(O)cc1,81.3
6,C[C@H](NCCc1cc(Cl)c(NCC(=O)O)cc1Cl)[C@H](O)c1ccc(O)cc1,61.7
7,C[C@H](NCCc1ccc(NCC(=O)O)c(Cl)c1Cl)[C@H](O)c1ccc(O)cc1,457

# More lines, now with the values ahead:
row,EC50 [nM],Structure (SMILES)
1,24,C[C@H](NCCc1ccc(NCC(=O)O)cc1)[C@H](O)c1ccc(O)cc1
2,575,C[C@H](NCCc1ccc(NCC(=O)O)c(Br)c1)[C@H](O)c1ccc(O)cc1
3,813,C[C@H](NCCc1ccc(NCC(=O)O)c(I)c1)[C@H](O)c1ccc(O)cc1
4,7.24,C[C@H](NCCc1ccc(NCC(=O)O)cc1Cl)[C@H](O)c1ccc(O)cc1
5,0.933,C[C@H](NCCc1ccc(NCC(=O)O)c(Cl)c1)[C@H](O)c1ccc(O)cc1
